Assays:
ES cells (Kh-1) = assay: Adhesion of spheres to OFL coat dish; type: cell-based, human; details: 10 nM C59, ES cells (Kh-1)
Description: Human ES cells (KhES-1) were obtained from Institute for Frontier Medical Sciences, Kyoto University (Suemori H, et al. Biochem Biophys Res Commun. 345: 926-32, 2006). The human iPS cells 404C2 are cells obtained by introducing Oct3/4, Sox2, Klf4, L-MYC, LIN28 and p53shRNA into human fibroblasts, using an episomal vector, and these cells were obtained from Professor Yamanaka et al. in Kyoto University (Okita, et al, Nat Methods. 8: 409-412, 2011). The human iPS cells 836B1 are cells obtained by introducing Oct3/4, Sox2, Klf4, L-MYC, LIN28, GLIS1 and p53shRNA into human fibroblasts, using an episomal vector, and these cells were obtained from Professor Yamanaka et al. in Kyoto University. The ES cells and the iPS cells were cultured on SNL cells (Takahashi K, et al, Cell. 131: 861-872, 2007). The obtained cell mass was transferred on a dish (24-well plate (BD)) coated with 50 μg/ml ornithine (Sigma), 5 μg/ml laminin (Sigma) and 5 μg/ml fibronectin (BD Bioscience Pharmingen), and the culture was continued in Neurobasal (Invitrogen), to which B27 (Invitrogen), 2 mM L-Gln, and 10 units/ml penicillin and streptomycin (Invitrogen) had been added. […] Furthermore, the expression levels of the Foxg1, Lhx2, Emx2 and CoupTF1 genes in the obtained spheres were measured according to a qPCR method (FIG. 4B). […]

[1] = tested on: ES cells or the iPS cells; assay: Immunostaining for CoupTF1 and Ctip2 after 46 days of cerebral cortex differentiation; type: cell-based, human; details: 2 nM C59 as Wnt inhibitor, 46 days; compared with 500 ng/ml DKK1, 500 nM XAV
Description: Human ES cells (KhES-1) were obtained from Institute for Frontier Medical Sciences, Kyoto University (Suemori H, et al. Biochem Biophys Res Commun. 345: 926-32, 2006). The human iPS cells 404C2 are cells obtained by introducing Oct3/4, Sox2, Klf4, L-MYC, LIN28 and p53shRNA into human fibroblasts, using an episomal vector, and these cells were obtained from Professor Yamanaka et al. in Kyoto University (Okita, et al, Nat Methods. 8: 409-412, 2011). The human iPS cells 836B1 are cells obtained by introducing Oct3/4, Sox2, Klf4, L-MYC, LIN28, GLIS1 and p53shRNA into human fibroblasts, using an episomal vector, and these cells were obtained from Professor Yamanaka et al. in Kyoto University. The ES cells and the iPS cells were cultured on SNL cells (Takahashi K, et al, Cell. 131: 861-872, 2007).
On the day before induction of differentiation, in order to separate the ES cells or the iPS cells, which had been cultured in a culture medium to which 10 μM Y-27632 (WAKO) had been added, from the SNL feeder cells, the SNL cells were removed with CTK and the remaining cells were then dissociated using Accumax (ICT). The cells were transferred on a 96-well plate (Lipidure-coat 96-well plate (NOF Corporation)) in an amount of 9×10^3 cells per well. Thereafter, the cells were subjected to a suspension culture in DMEM/F12 (WAKO) comprising 50 μM Y-27632 (WAKO), 10 μM SB43152 (Sigma), 10 ng/ml bFGF (Invitrogen), various types of Wnt inhibitors (DKK1 (R & D, 500 ng/ml), C59 (Cellagen Technology, 2-10 nM), XAV (Stemgent, 500 nM-2 μM) or IWP4 (Stemgent, 500 nM-2.5 μM)), LDN193189 (Stemgent), KSR (Invitrogen), 0.1 mM MEM non-essential amino acid (Invitrogen), 0.1 mM 2-mercaptoethanol (WAKO), and 2 mM L-Gln (Invitrogen) (initiation of differentiation induction, day 0). […]
The concentration of LDN193189 used in the above-described induction method was examined. […] Furthermore, the expression levels of the CoupTF1 and Sfrp1 genes were measured according to a qPCR method (FIG. 5C). […]

Cc1cc(-c2ccc(CC(=O)Nc3ccc(-c4cccnc4)cc3)cc2)ccn1 [C59]
adhesion of spheres to an OFL coat dish (ES cells (Kh-1)): did not adhere so much | CoupTF1-negative Ctip2-positive cerebral cortex neurons induced [1]: a large number

From patent US10626368B2, “Method for inducing cerebral cortex neurons” (KYOTO UNIVERSITY, priority 2015, dated 2020)
